# Experimental data taken from the supplement of paper PMC10307832.
# Legend:
# Test in all cases: relative viability (nuclei count vs DMSO), 5 days (fraction); higher = more cells survive
# Dactolisib + Bortezomib = compound: Cn1c(=O)n(-c2ccc(C(C)(C)C#N)cc2)c2c3cc(-c4cnc5ccccc5c4)ccc3ncc21 [Dactolisib] + CC(C)C[C@H](NC(=O)[C@H](Cc1ccccc1)NC(=O)c1cnccn1)B(O)O [Bortezomib] (partner 0.002 µM)
# How it was run: (§1)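 Relative viability is defined as nuclei in treated wells over nuclei in vehicle wells. Duplicate plates were run and medians reported. Lung cancer cell lines in 1536-well plates were dosed by pin tool one day after seeding, with one drug or with a fixed anchor-drug dose plus five library-drug doses (not always all listed) in √10 steps, and nuclei were counted after 5 days.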
# AZ505 + Tozasertib = compound: C1CCC(CC1)N(CCNCCC2=C3C(=C(C=C2)O)NC(=O)CO3)C(=O)CCNCCC4=CC(=C(C=C4)Cl)Cl [AZ505] + Cc1cc(Nc2cc(N3CCN(C)CC3)nc(Sc3ccc(NC(=O)C4CC4)cc3)n2)n[nH]1 [Tozasertib] (partner 0.1 µM)
# How it was run: as §1
# Dactolisib + Lapatinib = compound: Cn1c(=O)n(-c2ccc(C(C)(C)C#N)cc2)c2c3cc(-c4cnc5ccccc5c4)ccc3ncc21 [Dactolisib] + CS(=O)(=O)CCNCc1ccc(-c2ccc3ncnc(Nc4ccc(OCc5cccc(F)c5)c(Cl)c4)c3c2)o1 [Lapatinib] (partner 2 µM)
# How it was run: as §1
# AZ505 + Phenformin = compound: C1CCC(CC1)N(CCNCCC2=C3C(=C(C=C2)O)NC(=O)CO3)C(=O)CCNCCC4=CC(=C(C=C4)Cl)Cl [AZ505] + N=C(N)NC(=N)NCCc1ccccc1 [Phenformin] (partner 250 µM)
# How it was run: as §1
Cell Line,relative viability (Dactolisib + Bortezomib; first compound 0.002 µM),relative viability (Dactolisib + Bortezomib; first compound 0.006325 µM),relative viability (Dactolisib + Bortezomib; first compound 0.02 µM),relative viability (Dactolisib + Bortezomib; first compound 0.06325 µM),relative viability (Dactolisib + Bortezomib; first compound 0.2 µM),relative viability (AZ505 + Tozasertib; first compound 0.08 µM),relative viability (AZ505 + Tozasertib; first compound 0.253 µM),relative viability (AZ505 + Tozasertib; first compound 0.8 µM),relative viability (AZ505 + Tozasertib; first compound 2.53 µM),relative viability (AZ505 + Tozasertib; first compound 8 µM),relative viability (Dactolisib + Lapatinib; first compound 0.002 µM),relative viability (Dactolisib + Lapatinib; first compound 0.006325 µM),relative viability (Dactolisib + Lapatinib; first compound 0.02 µM),relative viability (Dactolisib + Lapatinib; first compound 0.06325 µM),relative viability (Dactolisib + Lapatinib; first compound 0.2 µM),relative viability (AZ505 + Phenformin; first compound 0.08 µM),relative viability (AZ505 + Phenformin; first compound 0.253 µM),relative viability (AZ505 + Phenformin; first compound 0.8 µM),relative viability (AZ505 + Phenformin; first compound 2.53 µM),relative viability (AZ505 + Phenformin; first compound 8 µM)
NCI-H647,0.868,0.798,0.42,0.193,0.143,0.46,0.425,0.277,0.372,0.363,0.912,0.799,0.646,0.184,0.169,0.574,0.314,0.479,0.488,0.702
NCI-H650,0.884,0.774,0.834,0.653,0.3,0.733,0.705,0.729,0.726,0.736,0.91,1,0.691,0.55,0.452,0.443,0.389,0.468,0.509,0.457
NCI-H661,0.659,0.87,0.67,0.397,0.288,0.356,0.377,0.351,0.32,0.367,0.434,0.475,0.414,0.257,0.263,0.285,0.261,0.288,0.328,0.296
NCI-H727,1.03,0.58,0.872,0.35,0.267,0.645,0.53,0.525,,0.581,0.753,0.648,0.994,0.363,0.345,0.651,0.461,0.525,,0.613
NCI-H838,0.852,0.725,0.434,0.22,0.242,0.253,0.286,0.257,0.268,0.265,0.983,0.717,0.463,0.249,0.224,0.503,0.491,0.49,0.466,0.579
NCI-H1355,1.21,1.21,1.13,0.937,0.525,0.57,0.534,0.586,0.534,0.527,1.02,0.879,0.939,0.521,0.388,0.433,0.407,0.477,0.481,0.499
NCI-H1437,0.567,0.564,0.518,0.377,0.278,0.396,0.424,0.382,0.391,0.403,0.797,0.835,0.807,0.517,0.234,0.311,0.286,0.298,0.317,0.311
NCI-H1650,0.224,0.213,0.212,0.208,0.228,0.313,0.448,0.496,0.369,0.321,0.847,0.701,0.73,0.449,0.431,0.429,0.4,0.423,0.405,0.463
NCI-H1651,1.05,0.952,0.884,0.886,0.67,0.65,0.784,0.633,0.725,0.606,0.84,0.788,0.643,0.35,0.303,0.385,0.346,0.318,0.357,0.345
NCI-H1666,0.859,0.756,0.722,0.392,0.404,0.629,0.613,0.534,0.525,0.584,0.723,0.559,0.691,0.318,0.391,0.56,0.599,0.587,0.557,0.483
NCI-H1734,0.92,0.741,0.781,0.346,0.243,0.259,0.276,0.243,0.219,0.215,1.02,1,0.817,0.342,0.378,0.393,0.351,0.402,0.406,0.425
NCI-H1755,1.01,0.848,0.933,0.711,0.58,0.526,0.595,0.602,0.646,0.564,1.07,1.03,1.06,0.852,0.73,0.615,0.592,0.663,0.639,0.688
NCI-H1915,1.06,0.931,0.965,0.902,0.737,0.422,0.447,0.432,0.416,0.399,0.986,0.956,0.97,0.964,0.693,0.339,0.38,0.345,0.375,0.354
NCI-H1975,0.362,0.338,0.323,0.209,0.183,0.649,0.733,0.731,0.638,0.741,0.796,0.767,0.643,0.327,0.284,0.348,0.402,0.419,0.405,0.429
NCI-H1993,0.94,0.689,0.754,0.522,0.455,0.611,0.529,0.58,0.539,0.529,0.784,0.714,0.843,0.601,0.651,0.472,0.426,0.546,0.56,0.478
NCI-H2009,1.07,1.01,0.972,0.44,0.288,0.714,0.738,0.805,0.706,0.64,1.1,1.01,0.95,0.9,0.327,0.387,0.486,0.468,0.506,0.442
